Laboratory results taken from patent US8865935B2, “Purification methods for betulonic acid and Boc-lysinated betulonic acid, and organic synthesis of betulonic acid amides with piperazine derivatives” (priority 2011, dated 2014).

Experiments:
[1] = system: Stenotrophomonas nitritireducens KACC 10891T; assay: antibacterial test, paper disc diffusion method; assay type: cell-based; conditions: paper disc (diameter 8 mm) wetted with 60 μL of 1 mg/mL sample in DMSO on agar plate; test repeated three times
Procedure: (§1) An antibacterial test was carried out using the above-mentioned paper disc diffusion method. Betulonic acid amide was dissolved in DMSO to make a sample having a concentration of 1 mg/mL. A filter paper (diameter: 8 mm, manufactured by Advantec, Toyo Roshi Kaisha, Japan) wetted with 60 μL of the sample was attached to an agar plate, and then a circumference, around which bacteria were not cultivated, was measured. DMSO was used as a negative control, and gentamicin was used as a positive control. The antibacterial test was repeatedly carried out three times.

[2] = system: four kinds of bacteria; assay: antibacterial test, paper disc diffusion method, all strains; assay type: cell-based; conditions: from Table 3, 1 mg/mL sample
Procedure: An antibacterial test was carried out using the above-mentioned paper disc diffusion method. Betulonic acid amide was dissolved in DMSO to make a sample having a concentration of 1 mg/mL. A filter paper (diameter: 8 mm, manufactured by Advantec, Toyo Roshi Kaisha, Japan) wetted with 60 μL of the sample was attached to an agar plate, and then a circumference, around which bacteria were not cultivated, was measured. DMSO was used as a negative control, and gentamicin was used as a positive control. The antibacterial test was repeatedly carried out three times. Ochrobactrum anthropi KCTC 22833T and Stenotrophomonas maltophilia KCTC 1773T used in the antibacterial test were purchased from Korean Collection for Type Culture (KCTC), and Ochrobactrum intermedium KACC 11952T and Stenotrophomonas nitritireducens KACC 10891T used in the antibacterial test were purchased from Korean Agricultural Culture Collection (KACC). The diameters of clear circular zones of samples 2 to 7 of FIG. 1 were measured by a paper disc diffusion method, and compared to that of gentamicin. […] Particularly, it can be ascertained that the activity of sample 2 (4-(3′,4′-dichlorophenylpiperazin-1-yl) amide betulonic acid) and the activity of sample 7 (4-(4′-trifluoromethylphenylpiperazin-1-yl) amide betulonic acid) are highest.

[3] = system: Stenotrophomonas maltophilia KCTC 1773T; assay: antibacterial test, paper disc diffusion method; assay type: cell-based; conditions: for Antibacterial zone of inhibition (mm) S. maltophila: paper disc (diameter 8 mm) wetted with 60 μL of 1 mg/mL sample in DMSO on agar plate, test repeated three times
Procedure: as §1

[4] = system: Ochrobactrum intermedium KACC 11952T; assay: antibacterial test, paper disc diffusion method; assay type: cell-based; conditions: paper disc (diameter 8 mm) wetted with 60 μL of 1 mg/mL sample in DMSO on agar plate, test repeated three times
Procedure: as §1

[5] = system: Ochrobactrum anthropi KCTC 22833T; assay: antibacterial test, paper disc diffusion method; assay type: cell-based; conditions: paper disc (diameter 8 mm) wetted with 60 μL of 1 mg/mL sample in DMSO on agar plate, test repeated three times
Procedure: as §1

Row | Compound | Antibacterial zone of inhibition (mm) S. nitritireducens [1] [mm] | Antibacterial zone of inhibition (mm) S. maltophila [3] [mm] | Antibacterial zone of inhibition (mm) O. intermedium [4] [mm] | Antibacterial zone of inhibition (mm) O. anthropi [5] [mm] | further results
1 | C=C(C)[C@@H]1CC[C@]2(C(=O)N3CCN(c4ccc(F)cc4)CC3)CC[C@]3(C)C(CC[C@@H]4[C@@]5(C)CCC(=O)C(C)(C)C5CC[C@]43C)[C@@H]12 (stereo partly drawn) [Compound 1 of FIG. 1, 4-(4′-fluorophenylpiperazine-1-yl) amide betulonic acid] | 11 |  |  |  | melting point: 151 to 152 °C; growth inhibition effect [2]: growth inhibition effect only to Stenotrophomonas nitritireducens
2 | C=C(C)[C@@H]1CC[C@]2(C(=O)N3CCN(c4ccccn4)CC3)CC[C@]3(C)[C@H](CC[C@@H]4[C@@]5(C)CCC(=O)C(C)(C)[C@@H]5CC[C@]43C)[C@@H]12 [Compound 4 of FIG. 1, 4-(2-pyridylpiperazine-1-yl) amide betulonic acid] |  | 10 | 10 |  | 
3 | C=C(C)[C@@H]1CC[C@]2(C(=O)N3CCN(c4ccc(C(F)(F)F)cc4)CC3)CC[C@]3(C)C(CC[C@@H]4[C@@]5(C)CCC(=O)C(C)(C)C5CC[C@]43C)[C@@H]12 (stereo partly drawn) [Compound 6 of FIG. 1, 4-(4′-trifluoromethylphenylpiperazine-1-yl) amide betulonic acid] |  |  |  |  | activity (ranking among the samples) [2]: highest
4 | gentamicin [reference compound] | 21 | 16 | 17 | 19 | 
5 | 4-(4′-trifluoromethylphenylpiperazine-1-yl) amide betulonic acid [Compound 6 of FIG. 1] | 16 | 14 | 14 | 15 | 
6 | C=C(C)[C@@H]1CC[C@]2(C(=O)N3CCN(c4ccc(Cl)c(Cl)c4)CC3)CC[C@]3(C)C(CC[C@@H]4[C@@]5(C)CCC(=O)C(C)(C)C5CC[C@]43C)[C@@H]12 (stereo partly drawn) [Compound 2 of FIG. 1, 4-(3′,4′-dichlorophenylpiperazine-1-yl) amide betulonic acid] | 15 |  |  |  | zone of inhibition at 1000 µg/mL ([3]; Stenotrophomonas maltophilia, KCTC1773T, read-out: Antibacterial zone of inhibition (mm) S. maltophila): 13 mm; zone of inhibition at 1000 µg/mL ([4]; Brucella intermedia, KACC11952T, read-out: Antibacterial zone of inhibition (mm) O. intermedium): 14 mm; zone of inhibition at 1000 µg/mL ([5]; Brucella anthropi, KCTC22833T, read-out: Antibacterial zone of inhibition (mm) O. anthropi): 15 mm; melting point: 182 to 183 °C; activity (ranking among the samples) [2]: highest
7 | C=C(C)C1CCC2(C(=O)N3CCN(c4ncccn4)CC3)CCC3(C)C(CCC4C5(C)CCC(=O)C(C)(C)C5CCC43C)C12 (stereo not drawn) [Compound 5 of FIG. 1, 4-(2-pyrimidylpiperazine-1-yl) amide betulonic acid] | 11 | 10 | 10 | 13 | 
